Results taken from PubChem BioAssay AID256 (DTP/NCI, 2004).
“And” between values parts separate entries of the source, which are not always exact repeats. Equal values may be shown once. Toxic doses and inconclusive results are not listed.

Test system: CD2F1 mice, L1210 leukemia ip, survival T/C
Assay: NCI In Vivo Anticancer Drug Screen. Data for tumor model L1210 Leukemia (intraperitoneal) in CD2F1 (CDF1) mice
Conditions: higher = longer survival
Method in brief: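 In this screen, transplantable tumors were grown in mice given either the compound or its vehicle. Results were expressed as the treated measurement relative to the control measurement.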

[1] = endpoint: mean survival time, dose: 100.0 mg/kg/injection, schedule: Q01DX001 (ip), vehicle: saline
[2] = endpoint: mean survival time, dose: 100.0 mg/kg/injection, schedule: Q04DX003 (ip), vehicle: saline with Tween-80
[3] = endpoint: mean survival time, dose: 100.0 mg/kg/injection, schedule: Q04DX003 (ip), vehicle: saline
[4] = endpoint: mean survival time, dose: 200.0 mg/kg/injection, schedule: Q01DX001 (ip), vehicle: saline
[5] = endpoint: mean survival time, dose: 200.0 mg/kg/injection, schedule: Q04DX003 (ip), vehicle: saline with Tween-80
[6] = endpoint: mean survival time, dose: 200.0 mg/kg/injection, schedule: Q04DX003 (ip), vehicle: saline
[7] = endpoint: mean survival time, dose: 400.0 mg/kg/injection, schedule: Q01DX001 (ip), vehicle: saline
[8] = endpoint: mean survival time, dose: 400.0 mg/kg/injection, schedule: Q04DX003 (ip), vehicle: saline with Tween-80
[9] = endpoint: mean survival time, dose: 400.0 mg/kg/injection, schedule: Q04DX003 (ip), vehicle: saline
[10] = endpoint: mean survival time, dose: 6.25 mg/kg/injection, schedule: Q01DX009 (ip), vehicle: saline
[11] = endpoint: mean survival time, dose: 12.5 mg/kg/injection, schedule: Q01DX009 (ip), vehicle: saline
[12] = endpoint: mean survival time, dose: 25.0 mg/kg/injection, schedule: Q01DX009 (ip), vehicle: saline
[13] = endpoint: mean survival time, dose: 50.0 mg/kg/injection, schedule: Q01DX009 (ip), vehicle: saline
[14] = endpoint: mean survival time, dose: 100.0 mg/kg/injection, schedule: Q01DX001 (ip), vehicle: saline with Tween-80
[15] = endpoint: mean survival time, dose: 200.0 mg/kg/injection, schedule: Q01DX001 (ip), vehicle: saline with Tween-80
[16] = endpoint: mean survival time, dose: 400.0 mg/kg/injection, schedule: Q01DX001 (ip), vehicle: saline with Tween-80

Cc1nc(Cl)c(C)c(C(=O)O)n1
T/C (endpoint: mean survival time, dose: 12.5 mg/kg/injection, schedule: Q01DX009 (ip), vehicle: other): 98 % of control | T/C (endpoint: mean survival time, dose: 25.0 mg/kg/injection, schedule: Q01DX009 (ip), vehicle: other): 102 % of control | T/C (endpoint: mean survival time, dose: 50.0 mg/kg/injection, schedule: Q01DX009 (ip), vehicle: other): 104 % of control | T/C (endpoint: mean survival time, dose: 100.0 mg/kg/injection, schedule: Q01DX009 (ip), vehicle: other): 96 % of control

O=C(O)C(O)C(O)C(=O)O (configuration not stated)
T/C [1]: 103 % of control | T/C (endpoint: mean survival time, dose: 100.0 mg/kg/injection, schedule: Q01DX009 (ip), vehicle: saline with Tween-80): 102 % of control | T/C [2]: 97 % of control | T/C [3]: 110 % of control | T/C [4]: 106 % of control | T/C (endpoint: mean survival time, dose: 200.0 mg/kg/injection, schedule: Q01DX009 (ip), vehicle: saline with Tween-80): 102 % of control | T/C [5]: 92 % of control | T/C [6]: 98 % of control | T/C [7]: 110 % of control | T/C [8]: 97 % of control | T/C [9]: 101 % of control

CC[N](CC)[Ge]([CH2]C)[CH2]C.CC[N](CC)[Ge]([CH2]C)[CH2]C
T/C (endpoint: mean survival time, dose: 3.12 mg/kg/injection, schedule: Q01DX009 (ip), vehicle: saline): 98 % of control | T/C (endpoint: mean survival time, dose: 3.12 mg/kg/injection, schedule: Q01DX009 (ip), vehicle: suspension in saline): 98 % of control | T/C [10]: 98 % of control | T/C (endpoint: mean survival time, dose: 6.25 mg/kg/injection, schedule: Q01DX009 (ip), vehicle: suspension in saline): 114 % of control | T/C [11]: 98 % of control | T/C (endpoint: mean survival time, dose: 12.5 mg/kg/injection, schedule: Q01DX009 (ip), vehicle: suspension in saline): 106 % of control | T/C [12]: 101 % of control | T/C (endpoint: mean survival time, dose: 25.0 mg/kg/injection, schedule: Q01DX009 (ip), vehicle: suspension in saline): 97 % of control | T/C [13]: 110 % of control | T/C (endpoint: mean survival time, dose: 50.0 mg/kg/injection, schedule: Q01DX009 (ip), vehicle: suspension in saline): 101 % of control

N=S(=O)(c1ccccc1)c1ccccc1
T/C [14]: 98 % of control | T/C (endpoint: mean survival time, dose: 100.0 mg/kg/injection, schedule: Q04DX002 (ip), vehicle: saline with Tween-80): 110 % of control | T/C [15]: 94 % of control | T/C (endpoint: mean survival time, dose: 200.0 mg/kg/injection, schedule: Q04DX002 (ip), vehicle: saline with Tween-80): 93 % of control | T/C [16]: 107 % of control

COC(=O)CC(CC(=O)OC)N1CCCC1
T/C [1]: 102 % of control | T/C [4]: 102 % of control | T/C [7]: 102 % of control

O=C1C2C3CC4C2C(Br)C2C1C3C42 (configuration not stated)
T/C (endpoint: mean survival time, dose: 25.0 mg/kg/injection, schedule: Q04DX002 (ip), vehicle: saline with Tween-80): 104 % of control | T/C (endpoint: mean survival time, dose: 50.0 mg/kg/injection, schedule: Q04DX002 (ip), vehicle: saline with Tween-80): 100 % of control

OCP(CO)CO.[Cl][Hg][Cl]
T/C (endpoint: mean survival time, dose: 12.5 mg/kg/injection, schedule: Q04DX003 (ip), vehicle: saline): 119 % of control | T/C (endpoint: mean survival time, dose: 25.0 mg/kg/injection, schedule: Q04DX003 (ip), vehicle: saline): 116 % of control

CCOC(=O)C(CCC(=O)O)NC(=O)OCc1ccccc1 (configuration not stated)
T/C [2]: 97 % of control | T/C [5]: 99 % of control | T/C [8]: 91 % of control

CC(=O)Nc1ccc2oc(=O)ccc2c1
T/C [2]: 101 % of control | T/C [5]: 101 % of control | T/C [8]: 101 % of control

CC(C)(C)N1CCC1C(O)c1ccccc1 (configuration not stated)
T/C (endpoint: mean survival time, dose: 25.0 mg/kg/injection, schedule: Q04DX003 (ip), vehicle: saline with Tween-80): 100 % of control | T/C (endpoint: mean survival time, dose: 50.0 mg/kg/injection, schedule: Q04DX003 (ip), vehicle: saline with Tween-80): 102 % of control | T/C [14]: 98 % of control | T/C [2]: 95 % of control

COc1ccc(Br)cc1C1OC(=O)c2c(OC)c(OC)cc(N)c21 (configuration not stated)
T/C [2]: 98 % of control | T/C [5]: 92 % of control | T/C [8]: 88 % of control

NC(=O)c1[nH]nc(C2OC(COP(=O)(O)O)C(O)C2O)c1O (configuration not stated)
T/C (endpoint: median survival time, dose: 6.25 mg/kg/injection, schedule: Q01DX005 (ip), vehicle: saline): 122 % of control | T/C (endpoint: median survival time, dose: 12.5 mg/kg/injection, schedule: Q01DX005 (ip), vehicle: saline): 93 % of control | T/C (endpoint: median survival time, dose: 25.0 mg/kg/injection, schedule: Q01DX005 (ip), vehicle: saline): 93 % of control

CC(F)(F)Cc1ccccc1
T/C [14]: 110 % of control | T/C [2]: 98 % of control | T/C [15]: 102 % of control | T/C [5]: 95 % of control | T/C [16]: 102 % of control | T/C [8]: 98 % of control

CCCCC=C(C1CCCC1C)C1CCCC1C (configuration not stated)
T/C [14]: 97 % of control | T/C [15]: 102 % of control | T/C [16]: 94 % of control

Nc1ccn([C@@H](C=O)O[C@@H](C=O)CO)c(=O)n1
T/C [10]: 105 % of control | T/C [11]: 114 % of control and 108 % of control | T/C [12]: 115 % of control and 117 % of control | T/C [13]: 121 % of control | T/C (endpoint: mean survival time, dose: 70.0 mg/kg/injection, schedule: Q01DX001 (ip), vehicle: saline): 114 % of control | T/C (endpoint: mean survival time, dose: 100.0 mg/kg/injection, schedule: Q01DX009 (ip), vehicle: saline): 155 % of control and 162 % of control | T/C (endpoint: mean survival time, dose: 140.0 mg/kg/injection, schedule: Q01DX001 (ip), vehicle: saline): 124 % of control | T/C (endpoint: mean survival time, dose: 200.0 mg/kg/injection, schedule: Q01DX009 (ip), vehicle: saline): 211 % of control

CN(CCC#N)CCC#N
T/C [3]: 101 % of control | T/C [6]: 96 % of control | T/C [9]: 101 % of control

CC(O)C1OC(n2cnc3c(=O)[nH]c(N)nc32)C(O)C1O (configuration not stated)
T/C (endpoint: mean survival time, dose: 12.5 mg/kg/injection, schedule: Q01DX005 (ip), vehicle: distilled water + Tween-80): 101 % of control | T/C (endpoint: mean survival time, dose: 25.0 mg/kg/injection, schedule: Q01DX005 (ip), vehicle: distilled water + Tween-80): 100 % of control | T/C (endpoint: mean survival time, dose: 50.0 mg/kg/injection, schedule: Q01DX005 (ip), vehicle: distilled water + Tween-80): 101 % of control | T/C (endpoint: mean survival time, dose: 100.0 mg/kg/injection, schedule: Q01DX005 (ip), vehicle: distilled water + Tween-80): 97 % of control | T/C (endpoint: mean survival time, dose: 200.0 mg/kg/injection, schedule: Q01DX005 (ip), vehicle: distilled water + Tween-80): 97 % of control | T/C (endpoint: median survival time, dose: 12.5 mg/kg/injection, schedule: Q01DX005 (ip), vehicle: distilled water + Tween-80): 112 % of control | T/C (endpoint: median survival time, dose: 20.0 mg/kg/injection, schedule: Q01DX005 (ip), vehicle: distilled water + Tween-80): 108 % of control | T/C (endpoint: median survival time, dose: 50.0 mg/kg/injection, schedule: Q01DX005 (ip), vehicle: distilled water + Tween-80): 112 % of control | T/C (endpoint: median survival time, dose: 100.0 mg/kg/injection, schedule: Q01DX005 (ip), vehicle: distilled water + Tween-80): 104 % of control | T/C (endpoint: median survival time, dose: 200.0 mg/kg/injection, schedule: Q01DX005 (ip), vehicle: distilled water + Tween-80): 96 % of control

N#CSCN1C(=O)C2CC=CCC2C1=O (configuration not stated)
T/C (endpoint: mean survival time, dose: 6.25 mg/kg/injection, schedule: Q04DX003 (ip), vehicle: saline with Tween-80): 103 % of control | T/C (endpoint: mean survival time, dose: 12.5 mg/kg/injection, schedule: Q04DX003 (ip), vehicle: saline with Tween-80): 101 % of control

O=C(Nc1ccn(C2CC(O)C(CO)O2)c(=O)n1)c1ccccc1 (configuration not stated)
T/C (endpoint: median survival time, dose: 12.5 mg/kg/injection, schedule: Q01DX005 (ip), vehicle: saline with Tween-80): 100 % of control | T/C (endpoint: median survival time, dose: 25.0 mg/kg/injection, schedule: Q01DX005 (ip), vehicle: saline with Tween-80): 104 % of control | T/C (endpoint: median survival time, dose: 50.0 mg/kg/injection, schedule: Q01DX005 (ip), vehicle: saline with Tween-80): 103 % of control | T/C (endpoint: median survival time, dose: 100.0 mg/kg/injection, schedule: Q01DX005 (ip), vehicle: saline with Tween-80): 98 % of control | T/C (endpoint: median survival time, dose: 200.0 mg/kg/injection, schedule: Q01DX005 (ip), vehicle: saline with Tween-80): 95 % of control

CCC(=O)OC1(c2ccccc2)CCN(C/C=C/c2ccccc2[N+](=O)[O-])CC1
T/C (endpoint: median survival time, dose: 12.5 mg/kg/injection, schedule: Q04DX003 (ip), vehicle: saline with Tween-80): 100 % of control | T/C (endpoint: median survival time, dose: 25.0 mg/kg/injection, schedule: Q04DX003 (ip), vehicle: saline with Tween-80): 88 % of control | T/C (endpoint: median survival time, dose: 50.0 mg/kg/injection, schedule: Q04DX003 (ip), vehicle: saline with Tween-80): 100 % of control | T/C (endpoint: median survival time, dose: 100.0 mg/kg/injection, schedule: Q04DX003 (ip), vehicle: saline with Tween-80): 100 % of control

CN1CCN(C(=S)S)CC1
T/C (endpoint: mean survival time, dose: 12.5 mg/kg/injection, schedule: Q01DX009 (ip), vehicle: saline with Tween-80): 100 % of control | T/C (endpoint: mean survival time, dose: 25.0 mg/kg/injection, schedule: Q01DX009 (ip), vehicle: saline with Tween-80): 95 % of control | T/C (endpoint: mean survival time, dose: 50.0 mg/kg/injection, schedule: Q01DX009 (ip), vehicle: saline with Tween-80): 100 % of control
